Test results: patent US8916137B2, “Monofunctional carbocyanine dyes for in vivo and in vitro imaging” (The General Hospital Corporation, priority 2008, dated 2014)

Key:
[1] = Absorption spectra and extinction coefficients of the fluorophores; format: physicochemical; conditions: PBS, pH 7.0
Experimental: Absorption spectra and extinction coefficients of the fluorophores were obtained on a Varian Cary 50-Bio UV-visible spectrophotometer. Extinction coefficients were measured in phosphate-buffered saline (PBS), 10 mM phosphate buffer pH 7.0, […] potassium chloride and 137 mM sodium chloride and were averaged over at least three sets of parallel experiments. For each trail, 2-3 mg of the HPLC-purified dyes were weighed on a Mettler AT201 analytical balance with an error of ±0.01 mg and were dissolved in deionized water using a 10 mL volumetric flask to prepare the stock solutions.
(§1) FIG. 9 summarizes the optical properties of CyAl-5 and CyAl-5.5. Spectra were obtained in phosphate buffered solution, pH 7.0. The extinction coefficients, at the dye absorption maxima, were performed in triplicate. Emission spectra were excited at 620 nm for CyAl-5 and 640 nm for CyAl-5.5. CyAl-5 and CyAl-5.5, Cy5 and Cy5.5 were used as fluorescence standards, respectively. The data are the average of at least 8 replicates and errors were <5%.

[2] = Photostability (dye photobleaching under irradiation); format: physicochemical; conditions: for photobleached: after 60 minutes of irradiation at 620 nm, PBS pH 7.0, absorbance matched (FIG. 4); for photobleaching: irradiated for an hour at 620 nm, PBS pH 7.0, A620 nm<0.1 (FIG. 7)
Experimental: Photostability data were collected on a Horiba Jobin Yvon Fluorolog-3 spectrofluorometer (Edison, N.Y.) equipped with a 450 W xenon lamp (Ushio inc. Japan). Dye photobleaching was observed by monitoring the fluorescence emission of absorbance matched dye samples (absorbance <0.1) at an excitation wavelength 620 nm for 60 minutes. […] Thus, CyAm-5 acid has 28% better photostability than Cy5.
Dye samples with the same absorption (A620 nm<0.1) were irradiated for an hour at 620 nm. Both bio-conjugatable new dyes, CyAm-5 acid and CycloCyAm-5 acid with photobleaching of 30% and 12%, respectively, were more photostable than Cy5 (45%).

[3] = Emission spectra and fluorescence quantum yield; format: physicochemical; conditions: PBS, pH 7.0
Experimental: Emission spectra were collected on a Varian Cary Eclipse fluorescence spectrophotometer. Quantum yield measurements were performed on at least eight trails for each dye derivative with maximum absorption for each sample less than 0.1, using Cy5 as a standard (Φ=0.27) (Mujumdar, R. B., Ernst, L. A., Mujumdar, S. R., Lewis, C. J., and Waggoner, A. S. (1993) Cyanine dye labeling reagents: sulfoindocyanine succinimidyl esters. Bioconjug. Chem. 4, 105-11). The standard deviation for both the extinction coefficient and quantum yield measurements is less than 5%.
as §1

CHO cells = experiment: Fluorescence labeling and imaging of azido-sugar modified CHO cells by click reaction; format: cell-based, Chinese hamster; conditions: fixed CHO cells
Experimental: Chinese hamster ovary (CHO) cells were maintained in a 5% CO2, water-saturated atmosphere and grown in F12 HAMS medium supplemented with 10% FBS, 1% penstrep and 1% L-glutamine. For biolabeling experiments, the cells were incubated for 2-3 days in the regular medium or medium supplemented with 100 μM Ac4ManNAc (Molecular probes) in an eight-well LabTek II chamber slide (Nunc). The medium was gently aspirated, and the cells were fixed at −20° C. by methanol for 10 min and then acetone for 1 min. […] Fluorescent images were captured on a Nikon Eclipse TE2000-S fluorescence microscope with 40× objective equipped with a Photometrics Cascade 512B CCD camera using excitation and emission filters from Chroma Technology. […]
Cells incubated with azido-sugar supplemented media (top) or unsupplimented media (bottom) are presented after treatment with CyAm-5 alkyne in the presence of Cu(I)/TBTA as catalyst. Cell nuclei stained with DAPI colored blue (left), fluorescence signal from CyAm-5 alkyne colored red (center) and the merged images (right) are shown. […]
FIGS. 6A-6B show fluorescent imaging of CHO cells labeled with CyAm-5 alkyne and controls. […] Cell nuclei stained with DAPI, fluorescence of labeled CyAm-5 alkyne and merge figures of the two above are shown in column left, middle and right, respectively. […]

[4] = cited from earlier work; for λem: as indicated on www.gelifesciences.com
[5] = as indicated on www.gelifesciences.com; cited from earlier work

Molecule | photobleached [2] | photobleaching [2] | λem [4] | λabs [5] | further results
CCN1/C(=C/C=C(/C=C/C2=[N+](CC)c3ccc(S(=O)(=O)O)cc3C2(C)C)CCC(=O)Nc2ccc(C(=O)O)cc2)C(C)(C)c2cc(S(=O)(=O)O)ccc21 [CyAm-5 acid] | 42% | 30% | – | – | absorption maximum [1]: 642 nm; better photostability / less photobleaching compared to Cy5 ([2]; after an hour irradiation at 620 nm (FIG. 4)): 28%; emission maximum [3]: 658 nm
CC1(C)C2=C(/C=C(/C=C3\CCC[N+]4=C3C(C)(C)c3cc(S(=O)(=O)O)ccc34)CCC(=O)Nc3ccc(C(=O)O)cc3)CCCN2c2ccc(S(=O)(=O)O)cc21 [CycloCyAm-5 acid] | – | 12% | – | – | –
C#Cc1cccc(NC(=O)CCC(/C=C/C2=[N+](CC)c3ccc(S(=O)(=O)O)cc3C2(C)C)=C\C=C2\N(CC)c3ccc(S(=O)(=O)O)cc3C2(C)C)c1 [CyAm-5 alkyne] | – | – | – | – | fluorescence signal of cells bearing azido sialic acid versus control cells (CHO cells; 20 μM dye, Cu(I) catalyst (FIG. 5)): increased fluorescence signal; conditions under which enhancement of fluorescence signal is observed (CHO cells; with or without Cu(I), TBTA, azido-sugar (FIG. 6A-B)): only observed in the presence of both catalyst Cu(I) and azido glycans
CCN1/C(=C/C=C/C=C/C2=[N+](CCCCCC(=O)O)c3ccc(S(=O)(=O)O)cc3C2(C)C)C(C)(C)c2cc(S(=O)(=O)[O-])ccc21 [Cy5] | 54% | 45% | 664 nm | 646 nm | quantum yield of standard (Φ) ([4]; Cy5 used as standard, literature value): 0.27
Cy5.5 | – | – | 693 nm | 673 nm | –
